In one series the test system is procaspase-3 processing. Briefly: Procaspase-3 processing by capture ELISA in HeLa cell extract (cyto c / compound titration). In kind it is biochemical. Particulars: cyto c titrated into HeLa cell extract, no compound; read-out: concentration for half-maximal activation (AC50) of procaspase-3 processing. The procedure: FIG. 2 depicts activity of compounds 1-5 in cell lysates. (A) Compound activation is cyto c dependent. Cyto c was titrated into S-100 cytoplasmic extracts with vehicle alone or 20 μM compound and procaspase-3 processing was assayed by capture ELISA. (B) Compound activation is dose-dependent. Compounds or vehicle were titrated into S-100 cytoplasmic extracts at a cyto c concentration of 1.25 μM and procaspases-3 processing was assayed by capture ELISA. (C) Immunoblot assay of compound-induced caspase activation. Samples at the 20 μM compound concentration in (B) were separated on SDS-polyacrylamide gel and transferred to polyvinyl membrane. […]
In order to determine if these compounds required cyto c for caspase-3 activation, cyto c was titrated into HeLa cell extract in the presence and absence of compounds and procaspase-3 processing was monitored by capture ELISA (Cyto c was titrated into lysates as detailed in the screening procedure. Capture ELISA assay for active caspase-3 was adapted from Aragones et al., www.biocarta.com. Briefly, a mouse monoclonal antibody recognizing both full-length and cleaved caspase-3 (capture antibody, Transduction Laboratories) was immobilized onto an immunosorp plate and blocked with 5% milk, and 25 μL of the caspase activation reaction in 75 μL Superblock (Pierce) was added. […]
Background: An ELISA detects its analyte on a solid surface through an enzyme-linked reagent.

The subject of series [1] is Jurkat cells. Description: Caspase-3 activation in Jurkat cells (immunoblot). Type of series: cell-based, human. The note with it: 50 μM compound or 1 μM staurosporin, 6 hr. The procedure: (§1) (C) DNA fragmentation analysis. […] Cell viability assay.
(§2) Compounds were then tested for their ability to induce apoptosis in live cells. The ability of the compounds to activate caspase-3 in a Jurkat cell line was first assayed. […] This same pattern was seen when we assayed for the cleavage of poly (ADP-ribose) polymerase (PARP), a cellular substrate of caspases-3 and -7 (see, D. W. Nicholson, Cell Death Differ 6, 1028-42 (1999)). Upon apoptosis, PAR-P is cleaved from a 116 kD to an 85 kD protein.
Background: Immunoblotting shows a protein as a band on a membrane.

The test system of series [2] is Jurkat cells. Briefly: PARP cleavage in Jurkat cells (immunoblot). Type of series: cell-based, human. Particulars: 50 μM compound or 1 μM staurosporin, 6 hr. The procedure: as §1, §2
Series [3] deals with Jurkat cells. Description: DNA fragmentation analysis in Jurkat cells. The note with it: 50 μM compound or 1 μM staurosporin, 8 hr. In kind it is cell-based, human.
The subject of series [4] is peripheral blood lymphocytes (PBL). Briefly: Cell viability, PBL. Particulars: normal cell. Type of series: cell-based, human. The source says: (§3) Samples were then probed by immunoblot for (A) caspase-3 activation or (B) cleavage of PARP. (C) DNA fragmentation analysis. […] The DNA was isolated by phenol/chloroform extraction, separated on a 2% agarose gel and visualized by ethidium bromide staining. Cell viability assay.
(§4) Normal cell lines include peripheral blood lymphocytes (PBL) isolated from donated human blood, non-transformed mammary fibroblasts (MCF-10A), human mammary epithelial cells (HMEC), human umbilical vein endothelial cells (HUVEC), and human prostate epithelial cells (PREC). Transformed cell lines include cell lines from leukemia, breast, lung, ovarian, and epidermal cancers (Table 1).

The subject of another series is CCRF-CEM. Briefly: Cell viability, CCRF-CEM. Type of series: cell-based, human. The note with it: leukemia.
Description: as §3, §4

The next series deals with NCI-H23. Briefly: Cell viability, NCI-H23. Type of series: cell-based, human. The note with it: NCI-H23, lung.
The test system of series [5] is Normal (PBL) and cancer (Jurkat, Molt-4, CCRF-CEM) lymphocyte cell lines. Briefly: Cell viability, normal and cancer lymphocyte cell lines compared. The note with it: all four lymphocyte cell lines, normal and cancerous.
Description: as §3, §4

In series [6] the test system is caspase-3 (DEVDase activity). Description: DEVDase fluorescence screen in HeLa cell S-100 cytoplasmic extracts. In kind it is biochemical. The note with it: in vitro fluorescence assay, HeLa S-100 extracts with cyto c. The source says: In order to identify compounds that modulate apoptosis, a chemical genetics approach was utilized to screen for molecules that target components of the apoptosis pathway (see, T. U. Mayer et al., Science 286, 971-4 (1999)). An in vitro screen using cytoplasmic extracts was adapted for apoptosis to a 96-well format and used to test an in-house library of ˜3500 compounds (see, T. Fernandes-Alnemri et al, Proc Natl Acad Sci USA 93, 7464-9 (1996); X. Liu, C. N. Kim, J. Yang, R. Jemmerson, X. Wang, Cell 86, 147-57 (1996); L. M. Leoni et al., Proc Natl Acad Sci USA 95, 9567-71 (1998)). Briefly, individual compounds were added to HeLa cell S-100 cytoplasmic extracts at a final concentration of 1 mM and apoptosis was induced by adding bovine heart cyto c (HeLa cell cytoplasmic extracts were prepared according to previously published reports (see, P. Li et al., Cell 91, 479-89 (1997)). Compounds were distributed into 96-well microtiter plates at a final concentration of 1 mM. To each well was added 250 μg of total protein from cytoplasmic extracts in HEB buffer (50 mM Hepes pH 7.4, 50 mM KCl, 5 mM EGTA, 2 mM MgCl), with 2 mM DTT, 2 μM cyto c, and 0.5 μM DEVD-AFC substrate in a total of 150 μL. Plates were incubated at 37° C. and fluorescence was read in a LJL Biosystems plate reader at 10 min intervals). Activation of caspase-3 was monitored by cleavage of a fluorogenic substrate, Asp-Glu-Val-Asp-7-amino-4-trifluoromethylcoumarin (DEVDase activity). As designed, the DEVDase fluorescence screen encompasses the release of cyto c from the mitochondria to the activation of caspase-3. Possible targets include cyto c, Apaf-1, caspase-9, caspase-3, inhibitors of apoptosis (IAPs), and possible unidentified components present in the cytosol.

Series [7] deals with Jurkat cells transfected with Apaf-1 siRNA. Description: Viability of Jurkat cells transfected with Apaf-1 siRNA (MTT test). Type of series: cell-based, human. Particulars: 20 nM Apaf-1 siRNA 48 hr, then 24 hr incubation. The procedure:
(A) Jurkat cells were transfected with 20 nM Apaf-1 siRNA for 48 hr and half the cells were lysed and probed with antibodies to Apaf-1, caspase-9, and caspase-3. The other half of the cells was incubated with varying concentrations of (B), compound 2 or (C), Fas ligand for 24 hr and assayed for viability by MTT test. (D) SK-OV-3 cells were transiently transfected with Apaf-1 or vector control for 24 hr and then incubated with vary concentrations of compound 2 and assayed for viability. (E) Cyto c was titrated into SK-OV-3 cell lysate in the presence of 300 μM dATP, with or without 150 nM purified Apaf-1 and 20 μM compound 2 as indicated.
In order to verify that compound 2 targets the apoptosome as a function of its cytotoxic activity, small interfering RNA (siRNA) was used to silence the expression of Apaf-1 in Jurkat cells. Sense and anti-sense oligonucleotides corresponding to nucleotides 978-998 of Apaf-1 (([…]) as reported by Lassus et al. Science 297, 1352-4. (2002)), were purchased from Dharmacon. Transfection of siRNA into Jurkat cells was accomplished using GeneSilencer (Gene Therapy Systems) according to manufacturer's instructions. There was a significant decrease in the level of expression of Apaf-1 48 hr after transfection of an Apaf-1 specific siRNA, without affecting the expression of caspases in the pathway (FIG. 5A).

Here are results for 5 molecules from US20030229132A1, “Small molecule modulators of apoptosis” (priority 2002, published 2003).

As to “cyto c: bovine heart cyto c added to cytoplasmic extracts to induce apoptosis”, in the series with procaspase-3 processing, the AC50 is roughly 1750 nM.

For the molecule `CN[C@@H]1C[C@H]2O[C@@](C)([C@@H]1OC)n1c3ccccc3c3c4c(c5c6ccccc6n2c5c31)C(=O)NC4` [Staurosporin, reference compound], the “processing of procaspase-3” value with Jurkat cells [1] is reported as “significant processing”. Moreover, the “cleavage of PARP” value with Jurkat cells [2] was “complete cleavage”. Besides, the DNA fragmentation result in the series on Jurkat cells [3] is reported as ““laddering” effect”. Also, the figures for the IC50 (in [4]; in the series with CCRF-CEM; in the series on NCI-H23) were 69 nM, 69 nM and 85 nM, respectively. For the same molecule, the susceptibility to cytotoxicity entry in series [5] is reported as “equally susceptible”.

With `CCOC(=O)NCc1ccc(Cl)c(Cl)c1` [Compound 1], the “activation of DEVDase activity” value in [6] is “most active”. Besides, the “processing of procaspase-3” value with Jurkat cells [1] is given as “no processing”. The DNA fragmentation result in the series with Jurkat cells [3] is “less pronounced effect”.

Regarding `O=C1Cc2ccccc2N1Cc1ccc(Cl)c(Cl)c1` [Compound 3], the “activation of DEVDase activity” value in series [6] is recorded as “strongly activated DEVDase activity”. In addition, the “processing of procaspase-3” value with Jurkat cells [1] is “significant processing”. The “cleavage of PARP” value in the series with Jurkat cells [2] is “limited processing”. Besides, the DNA fragmentation entry in the series with Jurkat cells [3] was “induced DNA fragmentation”.

B1: Fas Ligand: induces apoptosis which proceeds through the caspase-8 pathway (protein, UniProt P48023 130-281, looked up)
Tumor necrosis factor ligand …: QIGHPSPPPEKKELRKVAHLTGKSNSRSMPLEWEDTYGIVLLSGVKYKKGGLVINETGLYFVYSKVYFRGQSCNNLPLSHKVYMRNSKYPQDLVMMEGKMMSYCTTGQMWARSSYLGAVFNLTSADHLYVNVSELSLVNFEESQTFFGLYKL
As to B1, the “cell killing after silencing of Apaf-1” value in [7] is “still sensitive”.
